Results published in patent publication US10077243B2, “Compounds for treating disorders mediated by metabotropic glutamate receptor 5, and methods of use thereof” (Sunovion Pharmaceuticals Inc., priority 2009, dated 2018).

Biological target: T1, human mGluR5 (Homo sapiens, UniProt P41594)
T1 construct: expressed in transfected cells; host or cells: HEK293 cells stably expressing rat GLAST (EAAT1), stably transfected with pcDNAzeo3.1 carrying synthetic human mGluR5 DNA; zeocin-selected single clones
Experiment: In vitro cell-based FLIPR calcium assay for positive modulation of the activation of mGluR5 by glutamate (PAM EC50)
Conditions: HEK293/GLAST cells expressing recombinant human mGluR5; FLIPR calcium signal; glutamate added at its EC20; read-out: mGluR5 PAM EC50
Outline: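 HEK293/GLAST cells stably expressing mGluR5 were loaded with calcium-sensitive dye (25 °C, 45–60 min) in HBSS/20 mM HEPES. Test compounds were assayed in buffer containing glutamate at that day's EC20, with FLIPR fluorescence recorded. Controls contained 0.3% DMSO without compound.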

T1 sequence (P41594 21-1212): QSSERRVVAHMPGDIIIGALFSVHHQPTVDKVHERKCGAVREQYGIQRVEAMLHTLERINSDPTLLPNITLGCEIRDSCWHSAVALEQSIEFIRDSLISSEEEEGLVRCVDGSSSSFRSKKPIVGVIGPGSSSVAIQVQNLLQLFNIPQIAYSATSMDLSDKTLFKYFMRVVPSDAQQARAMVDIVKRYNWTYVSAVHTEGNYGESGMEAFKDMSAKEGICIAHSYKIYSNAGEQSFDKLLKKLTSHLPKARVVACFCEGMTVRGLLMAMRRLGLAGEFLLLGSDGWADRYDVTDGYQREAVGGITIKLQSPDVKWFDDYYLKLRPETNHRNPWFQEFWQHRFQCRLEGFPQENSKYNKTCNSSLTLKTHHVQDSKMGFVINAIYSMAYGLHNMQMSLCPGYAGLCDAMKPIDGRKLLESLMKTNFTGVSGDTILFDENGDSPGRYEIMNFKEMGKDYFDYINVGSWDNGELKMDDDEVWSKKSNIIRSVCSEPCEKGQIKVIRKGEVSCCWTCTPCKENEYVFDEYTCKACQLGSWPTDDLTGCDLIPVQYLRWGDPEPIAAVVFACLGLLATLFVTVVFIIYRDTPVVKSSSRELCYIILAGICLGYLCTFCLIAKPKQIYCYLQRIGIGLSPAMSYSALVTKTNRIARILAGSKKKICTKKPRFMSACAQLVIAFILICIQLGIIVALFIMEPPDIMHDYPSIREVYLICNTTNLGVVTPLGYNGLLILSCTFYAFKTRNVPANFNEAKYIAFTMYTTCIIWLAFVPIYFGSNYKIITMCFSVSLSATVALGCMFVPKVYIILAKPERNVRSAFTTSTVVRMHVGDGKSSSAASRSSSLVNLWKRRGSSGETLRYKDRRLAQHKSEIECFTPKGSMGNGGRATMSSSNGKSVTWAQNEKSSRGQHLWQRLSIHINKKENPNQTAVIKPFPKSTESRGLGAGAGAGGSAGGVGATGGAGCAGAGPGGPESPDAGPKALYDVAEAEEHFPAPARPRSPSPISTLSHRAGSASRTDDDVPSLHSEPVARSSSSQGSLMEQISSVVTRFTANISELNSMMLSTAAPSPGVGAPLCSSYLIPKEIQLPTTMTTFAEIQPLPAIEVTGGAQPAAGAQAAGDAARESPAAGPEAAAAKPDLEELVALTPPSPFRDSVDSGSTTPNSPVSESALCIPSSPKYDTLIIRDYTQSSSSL

Row | Structure (SMILES) | EC50
1 | O=c1c2ccc(C#Cc3ccccn3)cc2nc2n1CC(CO)CC2 (stereo not drawn) [Example 4.32, 8-(hydroxymethyl)-3-(pyridin-2-ylethynyl)-8,9-dihydro-6H-pyrido[2,1-b]quinazolin-11(7H)-one] | 100 to 300 nM
2 | COCC1CCc2nc3cc(C#Cc4cccc(F)c4)ccc3c(=O)n2C1 (stereo not drawn) [Example 4.33, 3-((3-fluorophenyl)ethynyl)-8-(methoxymethyl)-8,9-dihydro-6H-pyrido[2,1-b]quinazolin-11(7H)-one] | < 10 nM
3 | COCC1CCc2nc3cc(C#Cc4ccccn4)ccc3c(=O)n2C1 (stereo not drawn) [Example 4.34, 8-(methoxymethyl)-3-(pyridin-2-ylethynyl)-8,9-dihydro-6H-pyrido[2,1-b]quinazolin-11(7H)-one] | 10 to 30 nM
4 | CN(C)CC1CCc2nc3cc(C#Cc4cccc(F)c4)ccc3c(=O)n2C1 (stereo not drawn) [Example 4.36, 8-((dimethylamino)methyl)-3-((3-fluorophenyl)ethynyl)-8,9-dihydro-6H-pyrido[2,1-b]quinazolin-11(7H)-one] | 300 to 1000 nM
5 | O=c1c2ccc(C#Cc3ccccn3)cc2nc2n1CCC(CO)C2 (stereo not drawn) [Example 4.37, 7-(hydroxymethyl)-3-(pyridin-2-ylethynyl)-8,9-dihydro-6H-pyrido[2,1-b]quinazolin-11(7H)-one] | 30 to 100 nM
6 | CC1(C)Cn2c(nc3cc(C#Cc4ccccn4)ccc3c2=O)CO1 [Example 4.40, 3,3-dimethyl-9-(pyridin-2-ylethynyl)-3,4-dihydro-[1,4]oxazino[3,4-b]quinazolin-6(1H)-one] | 10 to 30 nM
7 | O=c1c2ccc(C#Cc3ccccn3)cc2nc2n1CC(F)(F)CC2 [Example 4.42, 8,8-difluoro-3-(pyridin-2-ylethynyl)-8,9-dihydro-6H-pyrido[2,1-b]quinazolin-11(7H)-one] | 10 to 30 nM
8 | O=c1c2ccc(C#Cc3ccccn3)cc2nc2n1CCC1CC21 (stereo not drawn) [Example 4.43, 8-(pyridin-2-ylethynyl)-1,2,3,10b-tetrahydrocyclopropa[3,4]pyrido[2,1-b]quinazolin-5(1aH)-one] | 10 to 30 nM
9 | CC1(C)Cn2c(nc3cc(C#Cc4ccccn4)ccc3c2=O)C(F)(F)C1 [Example 4.44, 6,6-difluoro-8,8-dimethyl-3-(pyridin-2-ylethynyl)-8,9-dihydro-6H-pyrido[2,1-b]quinazolin-11(7H)-one] | < 10 nM
10 | CC1(O)CCc2nc3cc(C#Cc4ccccn4)ccc3c(=O)n2C1 (stereo not drawn) [Example 4.45, 8-hydroxy-8-methyl-3-(pyridin-2-ylethynyl)-8,9-dihydro-6H-pyrido[2,1-b]quinazolin-11(7H)-one] | 100 to 300 nM
11 | COC1(C)CCc2nc3cc(C#Cc4ccccn4)ccc3c(=O)n2C1 (stereo not drawn) [Example 4.46, 8-methoxy-8-methyl-3-(pyridin-2-ylethynyl)-8,9-dihydro-6H-pyrido[2,1-b]quinazolin-11(7H)-one] | 10 to 30 nM
12 | CC1(C)CC(F)c2nc3cc(C#Cc4ccccn4)ccc3c(=O)n2C1 (stereo not drawn) [Example 4.47, 6-fluoro-8,8-dimethyl-3-(pyridin-2-ylethynyl)-8,9-dihydro-6H-pyrido[2,1-b]quinazolin-11(7H)-one] | < 10 nM
13 | O=c1c2ccc(C#Cc3ccccn3)cc2nc2n1C1CCC2CC1 [Example 4.48, 3-(pyridin-2-ylethynyl)-8,9-dihydro-6H-6,9-ethanopyrido[2,1-b]quinazolin-11(7H)-one] | < 10 nM
14 | CC12CCCN1Cc1nc3cc(C#Cc4ccccn4)ccc3c(=O)n1C2 (stereo not drawn) [Example 4.49, 13a-methyl-8-(pyridin-2-ylethynyl)-2,3,13,13a-tetrahydro-1H-pyrrolo[1′,2′:4,5]pyrazino[2,1-b]quinazolin-11 (5H)-one] | 30 to 100 nM
15 | CN1CCn2c(nc3cc(C#Cc4ccc(F)cc4)ccc3c2=O)C1 [Example 5.3, 9-((4-fluorophenyl)ethynyl)-2-methyl-3,4-dihydro-1H-pyrazino[2,1-b]quinazolin-6(2H)-one] | 10 to 30 nM
16 | CN1CCn2c(nc3cc(C#Cc4cccc(F)c4)ccc3c2=O)C1 [Example 5.4, 9-((3-fluorophenyl)ethynyl)-2-methyl-3,4-dihydro-1H-pyrazino[2,1-b]quinazolin-6(2H)-one] | < 10 nM
17 | CN1CCn2c(nc3cc(C#Cc4ccccn4)ccc3c2=O)C1 [Example 5.5, 2-methyl-9-(pyridin-2-ylethynyl)-3,4-dihydro-1H-pyrazino[2,1-b]quinazolin-6(2H)-one] | 100 to 300 nM
18 | CCC(C)N1CCn2c(nc3cc(C#Cc4cccc(F)c4)ccc3c2=O)C1 (stereo not drawn) [Example 5.6, 2-(sec-butyl)-9-((3-fluorophenyl)ethynyl)-3,4-dihydro-1H-pyrazino[2,1-b]quinazolin-6(2H)-one] | 100 to 300 nM
19 | O=c1c2ccc(C#Cc3cccc(F)c3)cc2nc2n1CCN(CCO)C2 [Example 5.8, 9-((3-fluorophenyl)ethynyl)-2-(2-hydroxyethyl)-3,4-dihydro-1H-pyrazino[2,1-b]quinazolin-6(2H)-one] | 30 to 100 nM
20 | COCCN1CCn2c(nc3cc(C#Cc4cccc(F)c4)ccc3c2=O)C1 [Example 5.9, 9-((3-fluorophenyl)ethynyl)-2-(2-methoxyethyl)-3,4-dihydro-1H-pyrazino[2,1-b]quinazolin-6(2H)-one] | 100 to 300 nM

Row | Structure (SMILES) | EC50
21 | O=c1c2ccc(C#Cc3cccc(F)c3)cc2nc2n1CCN(Cc1ccccc1)C2 [Example 5.10, 2-benzyl-9-((3-fluorophenyl)ethynyl)-3,4-dihydro-1H-pyrazino[2,1-b]quinazolin-6(2H)-one] | 300 to 1000 nM
22 | CCCCN1CCn2c(nc3cc(C#Cc4cccc(F)c4)ccc3c2=O)C1 [Example 5.11, 2-butyl-9-((3-fluorophenyl)ethynyl)-3,4-dihydro-1H-pyrazino[2,1-b]quinazolin-6(2H)-one] | 100 to 300 nM
23 | CC1Cn2c(nc3cc(C#Cc4ccccn4)ccc3c2=O)CN1C (stereo not drawn) [Example 5.14, 2,3-dimethyl-9-(pyridin-2-ylethynyl)-3,4-dihydro-1H-pyrazino[2,1-b]quinazolin-6(2H)-one] | 30 to 100 nM
24 | CC1CN(C)Cc2nc3cc(C#Cc4ccccn4)ccc3c(=O)n21 (stereo not drawn) [Example 5.15, 2,4-dimethyl-9-(pyridin-2-ylethynyl)-3,4-dihydro-1H-pyrazino[2,1-b]quinazolin-6(2H)-one] | 30 to 100 nM
25 | CC1(C)Cn2c(nc3cc(C#Cc4ccccn4)ccc3c2=O)CN1 [Example 5.17, 3,3-dimethyl-9-(pyridin-2-ylethynyl)-3,4-dihydro-1H-pyrazino[2,1-b]quinazolin-6(2H)-one] | 100 to 300 nM
26 | CN1Cc2nc3cc(C#Cc4ccccn4)ccc3c(=O)n2CC1(C)C [Example 5.18, 2,3,3-trimethyl-9-(pyridin-2-ylethynyl)-3,4-dihydro-1H-pyrazino[2,1-b]quinazolin-6(2H)-one] | 300 to 1000 nM
27 | O=c1c2ccc(C#Cc3cccc(F)c3)cc2nc2n1CC1CCCCN1C2 (stereo not drawn) [Example 5.19, 3-((3-fluorophenyl)ethynyl)-8,9,10,11,11a,12-hexahydropyrido[1′,2′:4,5]pyrazino[2,1-b]quinazolin-14(6H)-one] | 300 to 1000 nM
28 | O=c1c2ccc(C#Cc3ccccn3)cc2nc2n1CC1CCCCN1C2 (stereo not drawn) [Example 5.20, 3-(pyridin-2-ylethynyl)-8,9,10,11,11a,12-hexahydropyrido[1′,2′:4,5]pyrazino[2,1-b]quinazolin-14(6H)-one] | 300 to 1000 nM
29 | O=c1c2ccc(C#Cc3cccc(F)c3)cc2nc2n1CC1CCCN1C2 (stereo not drawn) [Example 5.21, 8-((3-fluorophenyl)ethynyl)-2,3,13,13a-tetrahydro-1H-pyrrolo[1′,2′:4,5]pyrazino[2,1-b]quinazolin-11(5H)-one] | < 10 nM
30 | O=c1c2ccc(C#Cc3ccccn3)cc2nc2n1CC1CCCN1C2 (stereo not drawn) [Example 5.22, 8-(pyridin-2-ylethynyl)-2,3,13,13a-tetrahydro-1H-pyrrolo[1′,2′:4,5]pyrazino[2,1-b]quinazolin-11(5H)-one] | 30 to 100 nM
31 | O=c1c2ccc(C#Cc3ccccn3)cc2nc2n1C[C@@H]1CCCN1C2 [Example 5.23, (S)-8-(pyridin-2-ylethynyl)-2,3,13,13a-tetrahydro-1H-pyrrolo[1′,2′:4,5]pyrazino[2,1-b]quinazolin-11(5H)-one] | 30 to 100 nM
32 | O=c1c2ccc(C#Cc3cccnc3)cc2nc2n1CC1CCCN1C2 (stereo not drawn) [Example 5.24, 8-(pyridin-3-ylethynyl)-2,3,13,13a-tetrahydro-1H-pyrrolo[1′,2′:4,5]pyrazino[2,1-b]quinazolin-11(5H)-one] | 30 to 100 nM
33 | CC1(C)CNc2nc3cc(C#Cc4ccccn4)ccc3c(=O)n2C1 [Example 5.26, 3,3-dimethyl-9-(pyridin-2-ylethynyl)-3,4-dihydro-1H-pyrimido[2,1-b]quinazolin-6(2H)-one] | < 10 nM
34 | O=c1c2ccc(C#Cc3ccc(F)cc3)cc2nc2n1CCOCC2 [Example 6.1, 8-((4-fluorophenyl)ethynyl)-4,5-dihydro-1H-[1,4]oxazepino[5,4-b]quinazolin-11(2H)-one] | < 10 nM
35 | CCc1ccc(C#Cc2ccc3c(=O)n4c(nc3c2)CCCCC4)cc1 [Example 6.3, 3-((4-ethylphenyl)ethynyl)-7,8,9,10-tetrahydroazepino[2,1-b]quinazolin-12(6H)-one] | 100 to 300 nM
36 | O=c1c2ccc(C#Cc3ccccc3)cc2nc2n1CCCCC2 [Example 6.4, 3-(phenylethynyl)-7,8,9,10-tetrahydroazepino[2,1-b]quinazolin-12(6H)-one] | < 10 nM
37 | O=c1c2ccc(C#Cc3ccccn3)cc2nc2n1CCCCC2 [Example 6.5, 3-(pyridin-2-ylethynyl)-7,8,9,10-tetrahydroazepino[2,1-b]quinazolin-12(6H)-one] | < 10 nM
38 | CC1CCc2nc3cc(C#Cc4ccc(F)cc4)ccc3c(=O)n2CC1 (stereo not drawn) [Example 6.6, 3-((4-fluorophenyl)ethynyl)-8-methyl-7,8,9,10-tetrahydroazepino[2,1-b]quinazolin-12(6H)-one] | < 10 nM
39 | CC1CCc2nc3cc(C#Cc4cccc(F)c4)ccc3c(=O)n2CC1 (stereo not drawn) [Example 6.7, 3-((3-fluorophenyl)ethynyl)-8-methyl-7,8,9,10-tetrahydroazepino[2,1-b]quinazolin-12(6H)-one] | < 10 nM
